Our source for the IC50 values is ChEMBL document CHEMBL1128613, “A water soluble benzazepine cholecystokinin-B receptor antagonist” (Bioorg Med Chem Lett, 1995).

SMILES strings stand for the structures.

This test has as its target T1, Cholecystokinin receptor type A (Cavia porcellus, UniProt Q63931).
T1 sequence (Q63931 whole entry): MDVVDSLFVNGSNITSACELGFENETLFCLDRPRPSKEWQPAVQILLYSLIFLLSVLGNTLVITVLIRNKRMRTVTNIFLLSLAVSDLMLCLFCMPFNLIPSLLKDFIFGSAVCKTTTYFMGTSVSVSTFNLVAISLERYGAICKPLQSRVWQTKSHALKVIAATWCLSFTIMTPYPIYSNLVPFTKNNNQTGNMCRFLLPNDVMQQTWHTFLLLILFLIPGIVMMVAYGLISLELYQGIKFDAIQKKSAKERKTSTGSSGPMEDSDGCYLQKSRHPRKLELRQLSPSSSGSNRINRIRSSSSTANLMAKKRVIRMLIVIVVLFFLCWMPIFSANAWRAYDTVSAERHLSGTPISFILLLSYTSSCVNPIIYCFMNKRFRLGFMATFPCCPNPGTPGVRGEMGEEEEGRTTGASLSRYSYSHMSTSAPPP
The test is described as follows: Binding activity towards cholecystokinin-A (CCK-A) receptor in guinea pig pancreas.
One may read the IC50 as the concentration at which inhibition is half-maximal. `Cc1ccc2c(c1)N(CC(=O)NC(C)(C)C)C(=O)[C@H](NC(=O)Nc1cccc(-c3nnn[nH]3)c1)C[C@@H]2C(C)C` displayed an IC50 of 250 nM. This lies in the sub-micromolar range. The result for `Cc1ccc([C@H]2C[C@@H](NC(=O)Nc3cccc(-c4nn[nH]n4)c3)C(=O)N(CC(=O)NC(C)(C)C)c3cc(C)ccc32)cc1` reads 600 nM; that for `CCS(=O)(=O)NC(=O)c1cccc(NC(=O)N[C@@H]2C[C@H](c3ccccc3)c3ccc(C)cc3N(CC(=O)NC(C)(C)C)C2=O)c1`, 1100 nM; that for `Cc1ccc2c(c1)N(CC(=O)NC(C)(C)C)C(=O)[C@H](NC(=O)Nc1cccc(-c3nnn[nH]3)c1)C[C@@H]2C1CCCCC1`, 490 nM. In the case of `Cc1ccc2c(c1)N(CC(=O)NC(C)(C)C)C(=O)[C@H](NC(=O)Nc1cccc(C(=O)NS(C)(=O)=O)c1)C[C@@H]2C1CCCCC1`, the IC50 was 520 nM. For `COC(=O)c1cccc(NC(=O)N[C@@H]2C[C@H](c3ccccc3)c3ccc(C)cc3N(CC(=O)NC(C)(C)C)C2=O)c1`, the IC50 is 310 nM. Against the preceding molecule, the IC50 is about 1.7-fold lower. The value for `Cc1ccc2c(c1)N(CC(=O)NC(C)(C)C)C(=O)[C@H](NC(=O)Nc1cccc(-c3nnn[nH]3)c1)C[C@@H]2Cc1ccccc1` was 34 nM; that for `Cc1ccc2c(c1)N(CC(=O)NC(C)(C)C)C(=O)[C@H](NC(=O)Nc1cccc(C(=O)O)c1)C[C@@H]2c1ccccc1` was 4200 nM. The value for `Cc1ccc2c(c1)N(CC(=O)NC(C)(C)C)C(=O)[C@H](NC(=O)Nc1cccc(-c3nnn[nH]3)c1)C[C@@H]2c1ccccc1` was 620 nM.

On to `Cc1ccc2c(c1)N(CC(=O)NC(C)(C)C)C(=O)[C@H](NC(=O)Nc1cccc(C(=O)NS(=O)(=O)Cc3ccccc3)c1)C[C@@H]2c1ccccc1`, for which the IC50 amounted to 730 nM. The molecule `Cc1ccc2c(c1)N(CC(=O)NC(C)(C)C)C(=O)[C@H](NC(=O)Nc1cccc(C(=O)NS(=O)(=O)C(F)(F)F)c1)C[C@@H]2c1ccccc1` registered an IC50 of 320 nM. The value for `Cc1ccc2c(c1)N(CC(=O)NC(C)(C)C)C(=O)[C@H](NC(=O)Nc1cccc(C(=O)NS(C)(=O)=O)c1)C[C@@H]2c1ccccc1` was 970 nM. The result for `COC(=O)c1cccc(NC(=O)N[C@@H]2C[C@H](C3CCCCC3)c3ccc(C)cc3N(CC(=O)NC(C)(C)C)C2=O)c1` reads 370 nM; that for `Cc1ccc2c(c1)N(CC(=O)NC(C)(C)C)C(=O)[C@H](NC(=O)Nc1cccc(C(=O)NS(=O)(=O)c3ccccc3C)c1)C[C@@H]2c1ccccc1`, 1300 nM. The molecule `Cc1ccc2c(c1)N(CC(=O)NC(C)(C)C)C(=O)[C@H](NC(=O)Nc1cccc(C(=O)Nc3nnn[nH]3)c1)C[C@@H]2c1ccccc1` registered an IC50 of 1000 nM.

For `Cc1ccc2c(c1)N(CC(=O)NC(C)(C)C)C(=O)[C@H](NC(=O)Nc1cccc(-c3nnn[nH]3)c1)C[C@@H]2CC1CCCCC1`, the IC50 turned out to be 220 nM. Molecule `Cc1ccc2c(c1)N(CC(=O)NC(C)(C)C)C(=O)[C@H](NC(=O)Nc1cccc(C(=O)NS(=O)(=O)c3ccccc3)c1)C[C@@H]2c1ccccc1` returned an IC50 of 1300 nM. With `Cc1ccc2c(c1)N(CC(=O)NC(C)(C)C)C(=O)[C@H](NC(=O)Nc1cccc(C(=O)O)c1)C[C@@H]2C1CCCCC1` (stereo in doubt; 2), the IC50 is 1400 nM.

In turn, `Cc1ccc2c(c1)N(CC(=O)NC(C)(C)C)C(=O)[C@H](NC(=O)Nc1cccc(C(=O)O)c1)C[C@@H]2C1CCCCC1` (stereo in doubt; 5k) displayed an IC50 of 2300 nM.
